Assay [1] concerns the target dopamine receptors. Description: Receptor Binding Assay, displacement of ^3 H-dopamine binding to calf caudate membranes. The conditions noted are these: for IC50: read-out: ^3 H-Dopamine (IC50), calf caudate membrane homogenate, 37° C., 10 minutes, non-specific binding with 10^-5 M (+)-Butaclamol.
Assay [2] deals with dopamine receptors. Nature of the assay: Receptor Binding Assay, displacement of ^3 H-Spiroperidol binding to calf caudate membranes. The following applies: read-out: ^3 H-Spiroperidol (IC50); 0.15 nM ^3 H-Spiroperidol, calf caudate membrane homogenate, 37° C., 20 minutes; non-specific binding with 10^-5 M (+)-Butaclamol.
The subject of assay [3] is dopamine receptors. Nature of the assay: biochemical. It counts as binding. The conditions noted are these: ^3 H-Haloperidol and ^3 H-Spiroperidol versus ^3 H-dopamine sites; compared with clozapine and chloropromazine.
In assay [4] the target is dopamine receptors (Bos taurus, UniProt P20288). Nature of the assay: biochemical. In kind it is binding. The conditions noted are these: 1.6 nM ^3 H-haloperidol, calf caudate membrane homogenate, 37° C., 10 minutes; non-specific binding with 10^-4 M dopamine.
Chain of dopamine receptors (Bos taurus, UniProt P20288) (P20288 whole entry): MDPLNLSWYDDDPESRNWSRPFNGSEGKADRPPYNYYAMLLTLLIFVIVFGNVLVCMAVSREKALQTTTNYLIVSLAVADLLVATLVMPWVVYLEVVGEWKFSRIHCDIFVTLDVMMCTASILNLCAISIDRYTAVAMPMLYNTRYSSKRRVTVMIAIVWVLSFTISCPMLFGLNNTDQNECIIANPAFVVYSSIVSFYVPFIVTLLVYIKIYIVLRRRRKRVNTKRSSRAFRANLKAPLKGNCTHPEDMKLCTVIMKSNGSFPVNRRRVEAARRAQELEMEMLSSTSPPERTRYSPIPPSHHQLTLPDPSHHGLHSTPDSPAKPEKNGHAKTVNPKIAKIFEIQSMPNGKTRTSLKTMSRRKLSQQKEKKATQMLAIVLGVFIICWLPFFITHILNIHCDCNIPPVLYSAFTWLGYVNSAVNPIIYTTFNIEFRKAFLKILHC

The values below come from patent US4188485A, “1-[(10,11-Dihydro-5H-dibenzo[a,d]-cyclohepten-5-yl)methyl]-4-substituted piperidines and related compounds” (G. D. Searle & Co., priority 1978, dated 1980).

Consider `CC(C)(C)C1(O)CCN(CC2c3ccccc3CCc3ccccc32)CC1` [Compound A], for which the values for the IC50 in assay [1], in assay [2] and in assay [4] were 15 µM, 0.86 µM and 0.0024 µM, respectively. Further, in assay [3], the antagonist ratios entry was “comparable to clozapine and chloropromazine”.

With `CC(C)(C)C1(O)CCN(CC2c3ccccc3Oc3ccccc32)CC1.Cl` [Compound F, 4-tert-butyl-1-(xanthen-9-ylmethyl)-4-piperidinol, hydrochloride], the IC50 was 15 µM in assay [1], 5.9 µM in assay [2] and 0.31 µM in assay [4]. In addition, the antagonist ratios entry in assay [3] is “comparable to clozapine and chloropromazine”.

For the molecule `CC(C)(C)C1(O)CCN(CC(c2ccccc2)c2ccccc2)CC1` [Compound H, 4-tert-butyl-1-(2,2-diphenylethyl)-4-piperidinol], the IC50 in assay [1] was determined as 60 µM; in assay [2], 3.6 µM; in assay [4], 0.16 µM. Moreover, in assay [3], the antagonist ratios result was “comparable to clozapine and chloropromazine”.

For `CC(C)(C)C1(O)CCN(CC2c3ccccc3C=Cc3ccccc32)CC1.Cl` [Compound D, 4-tert-butyl-1-[(5H-dibenzo[a,d]cyclohepten-5yl)methyl]-4-piperidinol, hydrochloride], the IC50 in assay [1] came to 7.2 µM; in assay [2] it was 1.5 µM; in assay [4], 0.037 µM. In assay [3], the antagonist ratios entry is “comparable to clozapine and chloropromazine”.

Take `OC1CCN(CC(c2ccccc2)c2ccccc2)CC1C1(O)CCN(CC(c2ccccc2)c2ccccc2)CC1` (stereo not shown) [Compound J, 1-(2,2-diphenylethyl)-3-[1-(2,2-phenylethyl)-4-hydroxypiperidin-4-yl]-4-piperidinol]: the figures for the IC50 in assay [1] and in assay [4] were 25 µM and 0.09 µM, respectively. In addition, the antagonist ratios entry in assay [3] is “comparable to clozapine and chloropromazine”.

Take `CC(C)(C)C1(O)CCN(CC2c3ccccc3CCc3cc(Cl)ccc32)CC1` (stereo not shown) [Compound B]: the IC50 in assay [1] turned out to be 0.88 µM; in assay [2], 0.27 µM; in assay [4] it was 0.0075 µM. The antagonist ratios entry in assay [3] is “comparable to clozapine and chloropromazine”.

On to `O=C1CCN(CC(c2ccc(Cl)cc2)c2ccc(Cl)cc2)CC1C1(O)CCN(CC(c2ccc(Cl)cc2)c2ccc(Cl)cc2)CC1` (stereo not shown) [Compound K, 1-[2,2-bis(p-chlorophenyl)ethyl]-3-{1-[2,2-bis(p-chlorophenyl)ethyl]-4-hydroxypiperidin-4-yl}-4-piperidinone], for which the antagonist ratios entry in assay [3] was “comparable to clozapine and chloropromazine”. In addition, in assay [4], the IC50 came to 10 µM.

Turning to `CC(C)(C)C1(O)CCN(CC2c3ccccc3Sc3ccccc32)CC1.Cl` [Compound G, 4-tert-butyl-1-(thioxanthen-9-ylmethyl)-4-piperidinol, hydrochloride], the figures for the 50% inhibitory concentration (IC50) in assay [1], in assay [2] and in assay [4] were 4.5 µM, 0.91 µM and 0.29 µM, respectively. The antagonist ratios entry in assay [3] was “comparable to clozapine and chloropromazine”.

For `Cl.Cl.NC1CCN(CC2c3ccccc3CCc3ccccc32)CC1` [Compound E, 1-[(10,11-dihydro-5H-dibenzo[a,d]cyclohepten-5-yl)methyl]-4-piperidinamine, dihydrochloride], in assay [1] (at 10^-4, calf caudate membrane homogenate, 37° C., 10 minutes, 100 µM), the “^3 H-Dopamine, % at 10^-4” value came out at 27%. Besides, the figures for the concentration for half-maximal inhibition (IC50) in assay [2] and in assay [4] were 30 µM and 2.5 µM, respectively. In addition, the antagonist ratios result in assay [3] was “comparable to clozapine and chloropromazine”.

`CC(C)(C)C1(O)CCN(CC2c3ccccc3CCc3ccc(Br)cc32)CC1.Cl` (stereo not shown) [Compound C, 4-tert-butyl-1-[(3-bromo-10,11-dihydro-5H-dibenzo[a,d]cyclohepten-5-yl)methyl]-4-piperidinol hydrochloride]: the IC50 in assay [1] was determined as 1.7 µM; in assay [2], 0.22 µM; in assay [4], 0.28 µM. The antagonist ratios result in assay [3] was “comparable to clozapine and chloropromazine”.

Turning to `O=C1CCN(CC(c2ccccc2)c2ccccc2)CC1C1(O)CCN(CC(c2ccccc2)c2ccccc2)CC1` (stereo not shown) [Compound I, 1-(2,2-diphenylethyl)-3-[1-(2,2-diphenylethyl)-4-hydroxypiperidin-4-yl]-4-piperidinone], the concentration for half-maximal inhibition (IC50) was found to be 27 µM in assay [1] and 0.5 µM in assay [4]. Further, the antagonist ratios result in assay [3] is “comparable to clozapine and chloropromazine”.

Broadly, the IC50 is the concentration that gives 50% inhibition.
